Measured values published in patent publication US6596307B1, “Process for preparing pharmaceutical bulk material having uniform dissolution” (Eli Lilly and Company, priority 2001, dated 2003).
Several values for one entry are separate records, joined by “and”; a condition that tells them apart may be missing. Equal entries are not always repeated. Blank lines part the entries; values can stand above or below the compound they belong to.

Assays:
Type in all cases: physicochemical
[1] = USP 23 Standard Dissolution Test for Cefaclor Capsules; parameters: Capsule dissolution rate, 1st stage (Avg. n = 6) / Capsule dissolution rate, 1st stage, individual unit / Capsule dissolution rate, 2nd stage, individual unit: unit: %; conditions: water 37° C., 30 minutes, then rehydrated; for Capsule dissolution rate, 1st stage, individual unit: % dissolved
Method: Dissolution (711): The test conditions are USP Apparatus 2 at 50 rpm using 900 ml of purified water maintained at 37° C. for 30 minutes. Determine the amount of Cefaclor monohydrate dissolved from ultraviolet absorbances at the wavelength of maximum absorbances at about 264 nm of filtered portions of the solution under test, suitably diluted with water, in comparison with a Standard solution having a know concentration of USP Cefaclor RS in the same medium.
Dissolution testing is continued with additional units through three stages unless the results conform at either the 1st or 2nd stage according to the following acceptance
The quantity, Q, is the % of dissolved active ingredient in the specification. For Cefaclor, at Stage 1, each individual unit must be at least 85% dissolved in 30 minutes to pass the testing. If any of the 6 units tested is less than 85% dissolved, the product fails level S1 and you must go to S2. At Stage 2, the mean of the twelve units tested (first 6 from S1 and 6 from S2) must be at least 80% dissolved and no unit may be less than 65% dissolved. If these criteria are not met, the product fails the level S2 specification and you must go to S3. At Stage 3, the mean of the 24 units tested (6 from S1+6 from S2+12 from S3) must be at least 80% dissolved, no more than 2 units may be less than 65% dissolved, and none of the units may be less than 55% dissolved.

[2] = Near Infrared Dihydrate Conversion Test (NIR onset time); conditions: for NIR Onset Time: cefaclor dihydrate dried in fluidized bed to different water contents (Table 2)
Source text: “NIR onset time” refers to the time between addition of water to a cefaclor sample and the observation of an absorption peak at about 5798 cm^−1 (1725 nm) as measured by Near-Infrared Reflectance Spectroscopy (NIRS). Depending upon the particular instrument used, the exact peak measurement may vary within the standard deviation established for that particular instrument.
The NIRS conversion test measures the time in minutes before the onset of the crystal form reversion for a sample of cefaclor bulk. […] To ensure that a lot will have an acceptable dissolution rate, one generally strives for a NIR onset time of >7 minutes, preferably >9 minutes and more preferably >10 minutes.
Approximately 1 to 2 grams of sample was spread in a thin layer on the bottom of an open aluminum weighing pan and placed in a constant humidity chamber, containing a saturated aqueous solution of K2HPO4, for at least two hours prior to analysis. Following equilibration in the humidity chamber, the sample was packed into a 2 mm×6 mm, stainless steel sample cup until full (approximately 35 mg), and 6 μL of water placed in the center of the sample. NIR data were collected using the NIR Systems model 5000 equipped with a fiber optic diffuse-reflectance probe, positioned over the sample cup. Immediately following addition of the water, NIR spectra were recorded from 1100 to 2500 nm approximately each 30 seconds. The time elapsed prior to the first appearance of the dihydrate peak at 1725 nm (5798 cm^−1) was reported as the NIR onset time.

[3] = Model Dissolution Test (capsule filled with drug substance only); conditions: no related substances added; failed the test
Method: Approximately 523 mg of bulk cefaclor is filled into an empty 500 mg cefaclor capsule (KG3062). The USP monograph dissolution test is then performed with filtered samples being withdrawn at 15, 30, and 45 minutes. The test conditions are USP Apparatus 2 at 50 rpm using 900 ml of purified water maintained at 37° C. Visual examination is done at the time of sample collection. Visual observations range from “the material is completely dissolved and/or dispersed within 5 minutes with no visible residue or agglomerates to a large intact mass remains at the end of 45 minutes that is hard to the touch.” An ultraviolet (UV) assay is conducted on the filtered aliquots to determine the percent dissolution.

[4] = X-ray diffraction conversion rate test (monohydrate to dihydrate after addition of water); conditions: added at 0.5% by weight to poorly dissolving lot, mixed dry; 1 ml water to 0.80 g sample
Method: Through X-ray diffraction studies of readily dissolving and incompletely dissolving lots of cefaclor, it was determined that all lots are initially in the same crystallographic state (monohydrate). Upon addition of water to readily dissolving lots, there is no change in the X-ray powder diffraction pattern over a five minute period. In contrast, when water is added to incompletely dissolving lot of cefaclor, substantial amounts of the dihydrate form are detected in less than five minutes. In an older lot of cefaclor, no dihydrate was detected for as long as two days, at which time the study was discontinued.
The Δ^2-isomer was added to a poorly dissolving lot of cefaclor at 0.5% concentration by weight. The sample was mixed in the dry state. After addition of 1 ml of water to a 0.80 g sample, the X-ray diffraction pattern was collected at different time intervals.
Kinetic studies were carried out using fraction 6 to gain a better understanding of how much would be required to achieve acceptable results in the model dissolution test.

[5] = Solubility in water of crystal forms
[6] = lots dried with full desiccation dried air
[7] = bulk dried to 3.0 to 6.5% water (control method)
[8] = lots dried with 40 grains dried air

Structure (SMILES): N[C@@H](C(=O)N[C@@H]1C(=O)N2C(C(=O)O)=C(Cl)CS[C@H]12)c1ccccc1 [Sample 2-1c]
Capsule dissolution rate, 1st stage, individual unit [1, 6]: 90 and 95 and 97 and 89 and 96 (2×) | Capsule dissolution rate, 1st stage (Avg. n = 6) [1, 6]: 94

Structure (SMILES): N[C@@H](C(=O)N[C@@H]1C(=O)N2C(C(=O)O)=C(Cl)CS[C@H]12)c1ccccc1.O [Sample 1-2]
NIR Onset Time [2]: 11 min

Structure (SMILES): N[C@@H](C(=O)N[C@@H]1C(=O)N2C(C(=O)O)=C(Cl)CS[C@H]12)c1ccccc1
dissolved in thirty minutes [3]: 78%

Structure (SMILES): N[C@@H](C(=O)N[C@@H]1C(=O)N2C(C(=O)O)=C(Cl)CS[C@H]12)c1ccccc1.O [Sample 1-1]
NIR Onset Time [2]: 3 min

Structure (SMILES): N[C@@H](C(=O)N[C@@H]1C(=O)N2C(C(=O)O)=C(Cl)CS[C@H]12)c1ccccc1.O [Sample 1-3]
NIR Onset Time [2]: 2.5 min

Structure (SMILES): N[C@@H](C(=O)NC1C(=O)N2C(C(=O)O)C(Cl)=CS[C@H]12)c1ccccc1 (stereo partly drawn) [Δ^2-isomer]
inhibitory effect on conversion to dihydrate [4]: minor inhibitory effect

Further lines, results first:

NIR onset time, upper control limit [2, 7]: approximately 2.5 minutes | average NIR onset time [2, 7]: 1.2 min
Structure (SMILES): N[C@@H](C(=O)NC1C(=O)N2C(C(=O)O)=C(Cl)CS[C@H]12)c1ccccc1 (some centres unmarked) [Cefaclor Monohydrate (Control), reference compound]

effect of addition to a cefaclor bulk sample on dihydrate reversion time ([2]; indicator tests): decrease the reversion onset time
Structure (SMILES): N[C@@H](C(=O)N[C@@H]1C(=O)N2C(C(=O)O)=C(Cl)CS[C@H]12)c1ccccc1 [amorphous cefaclor, reference compound]

Capsule dissolution rate, 1st stage, individual unit [1, 6]: 91 and 85 and 88 and 96 and 95 and 92 | Capsule dissolution rate, 1st stage (Avg. n = 6) [1, 6]: 90
Structure (SMILES): N[C@@H](C(=O)N[C@@H]1C(=O)N2C(C(=O)O)=C(Cl)CS[C@H]12)c1ccccc1 [Sample 2-1b]

Capsule dissolution rate, 1st stage, individual unit [1, 8]: 97 and 92 and 95 and 81 and 98 and 101 | Capsule dissolution rate, 1st + 2nd stage (Avg. n = 12) [1, 8]: 96 | Capsule dissolution rate, 1st stage (Avg. n = 6) [1, 8]: 94 | Capsule dissolution rate, 2nd stage (Avg. n = 6) [1, 8]: 98 | Capsule dissolution rate, 2nd stage, individual unit [1, 8]: 98 and 95 and 99 and 100 and 97 and 96
Structure (SMILES): N[C@@H](C(=O)N[C@@H]1C(=O)N2C(C(=O)O)=C(Cl)CS[C@H]12)c1ccccc1 [Sample 2-2a]

Capsule dissolution rate, 1st stage, individual unit [1, 6]: 102% (2×) and 100% and 94% and 101% (2×) | Capsule dissolution rate, 1st stage (Avg. n = 6) [1, 6]: 100
Structure (SMILES): N[C@@H](C(=O)N[C@@H]1C(=O)N2C(C(=O)O)=C(Cl)CS[C@H]12)c1ccccc1 [Sample 2-1a]

solubility in water relative to the monohydrate form [5]: less readily soluble
Structure (SMILES): N[C@@H](C(=O)N[C@@H]1C(=O)N2C(C(=O)O)=C(Cl)CS[C@H]12)c1ccccc1 [cefaclor dihydrate]
